Where two headings read alike, the source gives them in different places. Marks after values point to notes of the source that are not given here.
Assays:
Assay type in all cases: cell-based
[1] = system: microfilariae of Dirofilaria immitis; assay: Dirofilaria immitis, Microfilaria (DiMf) In Vitro Assay; conditions: for minimal effective concentration: Dirofilaria immitis, 72 h, read-out: DiMf MED, Minimum Effective Dose, D. immitis microfilariae motility, in vitro
D. immitis L4 larvae = assay: Dirofilaria immitis, L4 Stage (DiL4) In Vitro Assay; conditions: for minimal effective concentration: Dirofilaria immitis, 72 h, read-out: DiL4 MED, Minimum Effective Dose, D. immitis L4 larvae motility, in vitro; for DiMf/DiL4: larval stage selectivity, ratio of DiMf MED to DiL4 MED
[2] = system: third stage larvae of Haemonchus contortus; assay: Haemonchus contortus, Larvae Stage 3 (HcL3) In Vitro Assay; conditions: for minimal effective concentration: Haemonchus contortus, 96 h
[3] = read-out: HcL3 MED, Minimum Effective Dose, H. contortus third stage larvae, approximately 96 hours
[4] = read-out: HcL3 MED, Haemonchus contortus third stage larvae in vitro, class mark appended to the Ex # in Table 3

SMILES | minimal effective concentration [1] [µM] | minimal effective concentration (D. immitis L4 larvae) [µM] | DiMf/DiL4 (D. immitis L4 larvae) | minimal effective concentration [2, 3] [µM] | minimal effective concentration [2, 4] [µM] | minimal effective concentration ([2]; read-out: HcL3 MED, approximately 96 hours incubation, multiple-resistant field isolate) [µM] | DiMf MED ([1]; Minimum Effective Dose, D. immitis microfilariae motility, in vitro) [nM] | DiL4 MED (D. immitis L4 larvae; Minimum Effective Dose, D. immitis L4 larvae motility, in vitro) [nM] | HcL3 MED ([2]; Haemonchus contortus third stage larvae in vitro, class mark appended to the Ex # in Table 3) | HcL3 MED ([2]; Minimum Effective Dose, H. contortus third stage larvae, approximately 96 hours) [µM]
Cc1ccc(Cc2ccc(C[C@H]3OC(=O)[C@H](CC(C)C)N(C)C(=O)[C@@H](C)OC(=O)[C@H](CC(C)C)N(C)C(=O)[C@@H](Cc4ccc(Cc5ccc(C)o5)cc4)OC(=O)[C@H](CC(C)C)N(C)C(=O)[C@@H](C)OC(=O)[C@H](CC(C)C)N(C)C3=O)cc2)o1 [Example 3-157, (3S,6R,9S,12R,15S,18R,21S,24R)-3,9,15,21-tetraisobutyl-4,6,10,16,18,22-hexamethyl-12,24-bis(4-((5-methylfuran-2-yl)methyl)benzyl)-1,7,13,19-tetraoxa-4,10,16,22-tetraazacyclotetracosan-2,5,8,11,14,17,20,23-octaone] | 0.1 | 0.001 | 100 | > 100 | – | – | – | – | – | –
CCOc1ncccc1Cc1ccc(C[C@H]2OC(=O)[C@H](CC(C)C)N(C)C(=O)[C@@H](C)OC(=O)[C@H](CC(C)C)N(C)C(=O)[C@@H](Cc3ccc(Cc4cccnc4OCC)cc3)OC(=O)[C@H](CC(C)C)N(C)C(=O)[C@@H](C)OC(=O)[C@H](CC(C)C)N(C)C2=O)cc1 [Example 3-165, (3S,6R,9S,12R,15S,18R,21S,24R)-6,18-bis(4-((2-ethoxypyridin-3-yl)methyl)benzyl)-3,9,15,21-tetraisobutyl-4,10,12,16,22,24-hexamethyl-1,7,13,19-tetraoxa-4,10,16,22-tetraazacyclotetracosan-2,5,8,11,14,17,20,23-octaone] | 0.2 | 0.001 | 200 | > 100 | – | – | – | – | – | –
CC(C)C[C@H]1C(=O)O[C@H](Cc2ccc(Cc3ccoc3)cc2)C(=O)N(C)[C@@H](CC(C)C)C(=O)O[C@H](C)C(=O)N(C)[C@@H](CC(C)C)C(=O)O[C@H](Cc2ccc(Cc3ccoc3)cc2)C(=O)N(C)[C@@H](CC(C)C)C(=O)O[C@H](C)C(=O)N1C [Example 3-173, (3S,6R,9S,12R,15S,18R,21S,24R)-6,18-bis(4-(furan-3-ylmethyl)benzyl)-3,9,15,21-tetraisobutyl-4,10,12,16,22,24-hexamethyl-1,7,13,19-tetraoxa-4,10,16,22-tetraazacyclotetracosan-2,5,8,11,14,17,20,23-octaone] | 0.003 | < 0.0001 | >30 | 3.3 | 1 to 3.3 | – | – | – | – | –
CC(C)C[C@H]1C(=O)O[C@H](Cc2ccc(Cc3cccnc3N(C)C)cc2)C(=O)N(C)[C@@H](CC(C)C)C(=O)O[C@H](C)C(=O)N(C)[C@@H](CC(C)C)C(=O)O[C@H](Cc2ccc(Cc3cccnc3N(C)C)cc2)C(=O)N(C)[C@@H](CC(C)C)C(=O)O[C@H](C)C(=O)N1C [Example 3-176, (3S,6R,9S,12R,15S,18R,21S,24R)-6,18-bis(4-((2-(dimethylamino)pyridin-3-yl)methyl)benzyl)-3,9,15,21-tetraisobutyl-4,10,12,16,22,24-hexamethyl-1,7,13,19-tetraoxa-4,10,16,22-tetraazacyclotetracosan-2,5,8,11,14,17,20,23-octaone] | 0.004 | 0.0003 | 13.3 | 1.2 | 1 to 3.3 | – | – | – | – | –
CC(C)C[C@H]1C(=O)O[C@H](Cc2ccc(Cc3cnc(N4CCOCC4)nc3)cc2)C(=O)N(C)[C@@H](CC(C)C)C(=O)O[C@H](C)C(=O)N(C)[C@@H](CC(C)C)C(=O)O[C@H](Cc2ccc(Cc3cnc(N4CCOCC4)nc3)cc2)C(=O)N(C)[C@@H](CC(C)C)C(=O)O[C@H](C)C(=O)N1C [Example 3-178, (3S,6R,9S,12R,15S,18R,21S,24R)-3,9,15,21-tetraisobutyl-4,6,10,16,18,22-hexamethyl-12,24-bis(4-((2-morpholinopyrimidin-5-yl)methyl)benzyl)-1,7,13,19-tetraoxa-4,10,16,22-tetraazacyclotetracosan-2,5,8,11,14,17,20,23-octaone] | 0.001 | 0.001 | 1 | > 100 | – | – | – | – | – | –
COc1nccnc1Cc1ccc(C[C@H]2OC(=O)[C@H](CC(C)C)N(C)C(=O)[C@@H](C)OC(=O)[C@H](CC(C)C)N(C)C(=O)[C@@H](Cc3ccc(Cc4nccnc4OC)cc3)OC(=O)[C@H](CC(C)C)N(C)C(=O)[C@@H](C)OC(=O)[C@H](CC(C)C)N(C)C2=O)cc1 [Example 3-193, (3S,6R,9S,12R,15S,18R,21S,24R)-3,9,15,21-tetraisobutyl-6,18-bis(4-((3-methoxypyrazin-2-yl)methyl)benzyl)-4,10,12,16,22,24-hexamethyl-1,7,13,19-tetraoxa-4,10,16,22-tetraazacyclotetracosan-2,5,8,11,14,17,20,23-octaone] | 0.002 | 0.0004 | 5 | 1 | < 1 | ≤ 1 | – | – | – | –
CC(C)C[C@H]1C(=O)O[C@H](Cc2ccc(Cc3cncc(F)c3)cc2)C(=O)N(C)[C@@H](CC(C)C)C(=O)O[C@H](C)C(=O)N(C)[C@@H](CC(C)C)C(=O)O[C@H](Cc2ccc(Cc3cncc(F)c3)cc2)C(=O)N(C)[C@@H](CC(C)C)C(=O)O[C@H](C)C(=O)N1C [Example 3-194, (3S,6R,9S,12R,15S,18R,21S,24R)-6,18-bis(4-((5-fluoropyridin-3-yl)methyl)benzyl)-3,9,15,21-tetraisobutyl-4,10,12,16,22,24-hexamethyl-1,7,13,19-tetraoxa-4,10,16,22-tetraazacyclotetracosan-2,5,8,11,14,17,20,23-octaone] | 0.001 | 0.001 | 1 | > 100 | – | – | – | – | – | –
COc1ccc(C(C)c2ccc(C[C@H]3OC(=O)[C@H](CC(C)C)N(C)C(=O)[C@@H](C)OC(=O)[C@H](CC(C)C)N(C)C(=O)[C@@H](Cc4ccc(C(C)c5ccc(OC)nc5)cc4)OC(=O)[C@H](CC(C)C)N(C)C(=O)[C@@H](C)OC(=O)[C@H](CC(C)C)N(C)C3=O)cc2)cn1 (stereo partly drawn) [Example 3-207, (3S,6R,9S,12R,15S,18R,21S,24R)-3,9,15,21-tetraisobutyl-6,18-bis(4-(1-(6-methoxypyridin-3-yl)ethyl)benzyl)-4,10,12,16,22,24-hexamethyl-1,7,13,19-tetraoxa-4,10,16,22-tetraazacyclotetracosan-2,5,8,11,14,17,20,23-octaone] | 0.05 | 0.001 | 50 | > 100 | – | – | – | – | – | –
COc1nc(C)c(Cc2ccc(C[C@H]3OC(=O)[C@H](CC(C)C)N(C)C(=O)[C@@H](C)OC(=O)[C@H](CC(C)C)N(C)C(=O)[C@@H](Cc4ccc(Cc5sc(OC)nc5C)cc4)OC(=O)[C@H](CC(C)C)N(C)C(=O)[C@@H](C)OC(=O)[C@H](CC(C)C)N(C)C3=O)cc2)s1 [Example 3-209, (3S,6R,9S,12R,15S,18R,21S,24R)-3,9,15,21-tetraisobutyl-6,18-bis(4-((2-methoxy-4-methylthiazol-5-yl)methyl)benzyl)-4,10,12,16,22,24-hexamethyl-1,7,13,19-tetraoxa-4,10,16,22-tetraazacyclotetracosan-2,5,8,11,14,17,20,23-octaone] | 0.01 | 0.0005 | 20 | > 100 | – | – | – | – | – | –
COc1cccnc1Cc1ccc(C[C@H]2OC(=O)[C@H](CC(C)C)N(C)C(=O)[C@@H](C)OC(=O)[C@H](CC(C)C)N(C)C(=O)[C@@H](Cc3ccc(Cc4ncccc4OC)cc3)OC(=O)[C@H](CC(C)C)N(C)C(=O)[C@@H](C)OC(=O)[C@H](CC(C)C)N(C)C2=O)cc1 [Example 3-215] | – | – | >3.5 | – | – | – | 0.7 | <0.2 | 3-215* (Examples with an asterisk (*) have HcL3 MED values≤1 μM) | 1
COc1ccnc(Cc2ccc(C[C@H]3OC(=O)[C@H](CC(C)C)N(C)C(=O)[C@@H](C)OC(=O)[C@H](CC(C)C)N(C)C(=O)[C@@H](Cc4ccc(Cc5nccc(OC)n5)cc4)OC(=O)[C@H](CC(C)C)N(C)C(=O)[C@@H](C)OC(=O)[C@H](CC(C)C)N(C)C3=O)cc2)n1 [Example 3-217, (3S,6R,9S,12R,15S,18R,21S,24R)-3,9,15,21-tetraisobutyl-6,18-bis(4-((4-methoxypyrimidin-2-yl)methyl)benzyl)-4,10,12,16,22,24-hexamethyl-1,7,13,19-tetraoxa-4,10,16,22-tetraazacyclotetracosan-2,5,8,11,14,17,20,23-octaone] | 0.003 | < 0.0007 | >4.3 | 3.3 | 1 to 3.3 | – | – | – | – | –
COc1cncc(Cc2ccc(C[C@H]3OC(=O)[C@H](CC(C)C)N(C)C(=O)[C@@H](C)OC(=O)[C@H](CC(C)C)N(C)C(=O)[C@@H](Cc4ccc(Cc5cncc(OC)n5)cc4)OC(=O)[C@H](CC(C)C)N(C)C(=O)[C@@H](C)OC(=O)[C@H](CC(C)C)N(C)C3=O)cc2)n1 [Example 3-218, (3S,6R,9S,12R,15S,18R,21S,24R)-3,9,15,21-tetraisobutyl-6,18-bis(4-((6-methoxypyrazin-2-yl)methyl)benzyl)-4,10,12,16,22,24-hexamethyl-1,7,13,19-tetraoxa-4,10,16,22-tetraazacyclotetracosan-2,5,8,11,14,17,20,23-octaone] | 0.01 | 0.0008 | 12.5 | > 23 | – | – | – | – | – | –
